Results reported in PubChem BioAssay (NCI).
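Exposure lasted 48 hours, with cells grown in 96-well plates and compounds tested at five concentrations. The concentration for full growth arrest is given as TGI.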

Tests used:
Test in all cases: NCI tumour cell line growth inhibition, 48 h
SK-MEL-5 melanoma = tested on: SK-MEL-5 melanoma
SK-MEL-28 melanoma = tested on: SK-MEL-28 melanoma
NCI-H226 lung = tested on: NCI-H226 lung
HOP-18 NSCLC = tested on: HOP-18 NSCLC
NCI-H460 lung = tested on: NCI-H460 lung
SNB-78 CNS = tested on: SNB-78 CNS
COLO 205 colon = tested on: COLO 205 colon
SF-539 CNS = tested on: SF-539 CNS
SK-OV-3 ovarian = tested on: SK-OV-3 ovarian
KM12 colon = tested on: KM12 colon
UO-31 renal = tested on: UO-31 renal
OVCAR-5 ovarian = tested on: OVCAR-5 ovarian
SR leukemia = tested on: SR leukemia
HOP-92 NSCLC = tested on: HOP-92 NSCLC
HOP-62 NSCLC = tested on: HOP-62 NSCLC
HCT-15 colon = tested on: HCT-15 colon
HT29 colon = tested on: HT29 colon
SK-MEL-2 melanoma = tested on: SK-MEL-2 melanoma
HL-60(TB) leukemia = tested on: HL-60(TB) leukemia
OVCAR-4 ovarian = tested on: OVCAR-4 ovarian
SF-295 CNS = tested on: SF-295 CNS
DMS 114 small cell lung = tested on: DMS 114 small cell lung
NCI-H522 lung = tested on: NCI-H522 lung
HCT-116 colon = tested on: HCT-116 colon
M19-MEL melanoma = tested on: M19-MEL melanoma
SF-268 CNS = tested on: SF-268 CNS
UACC-257 melanoma = tested on: UACC-257 melanoma
SW-620 colon = tested on: SW-620 colon
OVCAR-3 ovarian = tested on: OVCAR-3 ovarian
A498 renal = tested on: A498 renal
OVCAR-8 ovarian = tested on: OVCAR-8 ovarian
MOLT-4 leukemia = tested on: MOLT-4 leukemia
SN12C renal = tested on: SN12C renal
IGROV1 ovarian = tested on: IGROV1 ovarian
EKVX NSCLC = tested on: EKVX NSCLC
LXFL 529 NSCLC = tested on: LXFL 529 NSCLC
DMS 273 small cell lung = tested on: DMS 273 small cell lung
DLD-1 colon = tested on: DLD-1 colon
NCI-H23 lung = tested on: NCI-H23 lung
MALME-3M melanoma = tested on: MALME-3M melanoma
K-562 leukemia = tested on: K-562 leukemia
786-0 renal = tested on: 786-0 renal
RPMI-8226 leukemia = tested on: RPMI-8226 leukemia
M14 melanoma = tested on: M14 melanoma
ACHN renal = tested on: ACHN renal
U251 CNS = tested on: U251 CNS
RXF-631 renal = tested on: RXF-631 renal
KM20L2 colon = tested on: KM20L2 colon
SNB-75 CNS = tested on: SNB-75 CNS
SNB-19 CNS = tested on: SNB-19 CNS
A549 NSCLC = tested on: A549 NSCLC
CAKI-1 renal = tested on: CAKI-1 renal
HCC-2998 colon = tested on: HCC-2998 colon
XF 498 CNS = tested on: XF 498 CNS
CCRF-CEM leukemia = tested on: CCRF-CEM leukemia
UACC-62 melanoma = tested on: UACC-62 melanoma
RXF 393 renal = tested on: RXF 393 renal

For `COc1ccc2c(c1)[n+]([O-])c(-c1ccc(Cl)c(Cl)c1)c(N)[n+]2[O-]`, which TGI (SK-MEL-5 melanoma) is on record?
The TGI was 31.5 µM.

And the TGI (SK-MEL-28 melanoma)?
Its TGI is over 100 µM.

What about the TGI (NCI-H226 lung) of the same compound?
Its TGI is over 100 µM.

What about the TGI (HOP-18 NSCLC) of the same compound?
The TGI was over 100 µM.

And the TGI (NCI-H460 lung)?
The TGI was over 100 µM.

What about the TGI (SNB-78 CNS) of the same compound?
The TGI was over 100 µM.

And the TGI (COLO 205 colon)?
Its TGI is 33.6 µM.

What about the TGI (SF-539 CNS) of the same compound?
The TGI was 68.6 µM.

And the TGI (SK-OV-3 ovarian)?
Its TGI is over 100 µM.

And the TGI (KM12 colon)?
Its TGI is over 100 µM.

And the TGI (UO-31 renal)?
Its TGI is over 100 µM.

And the TGI (OVCAR-5 ovarian)?
Its TGI is over 100 µM.

What about the TGI (SR leukemia) of the same compound?
The TGI was over 100 µM.

And the TGI (HOP-92 NSCLC)?
The TGI was over 100 µM.

What about the TGI (HOP-62 NSCLC) of the same compound?
The TGI was over 100 µM.

What about the TGI (HCT-15 colon) of the same compound?
The TGI was over 100 µM.

What about the TGI (HT29 colon) of the same compound?
The TGI was over 100 µM.

And the TGI (SK-MEL-2 melanoma)?
The TGI was over 100 µM.

And the TGI (HL-60(TB) leukemia)?
Its TGI is 61 µM.

And the TGI (OVCAR-4 ovarian)?
Its TGI is over 100 µM.

And the TGI (SF-295 CNS)?
The TGI was over 100 µM.

And the TGI (DMS 114 small cell lung)?
The TGI was 32.1 µM.

And the TGI (NCI-H522 lung)?
The TGI was 27.6 µM.

And the TGI (HCT-116 colon)?
Its TGI is over 100 µM.

And the TGI (M19-MEL melanoma)?
The TGI was over 100 µM.

And the TGI (SF-268 CNS)?
The TGI was over 100 µM.

What about the TGI (UACC-257 melanoma) of the same compound?
Its TGI is 46.4 µM.

What about the TGI (SW-620 colon) of the same compound?
Its TGI is over 100 µM.

What about the TGI (OVCAR-3 ovarian) of the same compound?
Its TGI is 68 µM.

And the TGI (A498 renal)?
Its TGI is over 100 µM.

And the TGI (OVCAR-8 ovarian)?
Its TGI is over 100 µM.

What about the TGI (MOLT-4 leukemia) of the same compound?
The TGI was over 100 µM.

And the TGI (SN12C renal)?
Its TGI is over 100 µM.

And the TGI (IGROV1 ovarian)?
Its TGI is 93.2 µM.

And the TGI (EKVX NSCLC)?
Its TGI is over 100 µM.

And the TGI (LXFL 529 NSCLC)?
The TGI was over 100 µM.

And the TGI (DMS 273 small cell lung)?
The TGI was 66.7 µM.

And the TGI (DLD-1 colon)?
The TGI was over 100 µM.

What about the TGI (NCI-H23 lung) of the same compound?
Its TGI is 30.9 µM.

What about the TGI (MALME-3M melanoma) of the same compound?
The TGI was 58.5 µM.

And the TGI (K-562 leukemia)?
The TGI was over 100 µM.

What about the TGI (786-0 renal) of the same compound?
Its TGI is over 100 µM.

What about the TGI (RPMI-8226 leukemia) of the same compound?
Its TGI is over 100 µM.

What about the TGI (M14 melanoma) of the same compound?
The TGI was 72.2 µM.

What about the TGI (ACHN renal) of the same compound?
The TGI was over 100 µM.

What about the TGI (U251 CNS) of the same compound?
The TGI was over 100 µM.

What about the TGI (RXF-631 renal) of the same compound?
The TGI was 82.3 µM.

What about the TGI (KM20L2 colon) of the same compound?
Its TGI is over 100 µM.

And the TGI (SNB-75 CNS)?
Its TGI is over 100 µM.

What about the TGI (SNB-19 CNS) of the same compound?
Its TGI is over 100 µM.

And the TGI (A549 NSCLC)?
Its TGI is over 100 µM.

What about the TGI (CAKI-1 renal) of the same compound?
The TGI was over 100 µM.

`Clc1ccc(CCN2CCOCC2)c(Cl)c1` was tested. Which TGI (SK-MEL-5 melanoma) did it give?
The TGI was over 100 µM.

What about the TGI (SK-MEL-28 melanoma) of the same compound?
Its TGI is over 100 µM.

And the TGI (HOP-18 NSCLC)?
Its TGI is over 100 µM.

What about the TGI (NCI-H460 lung) of the same compound?
The TGI was over 100 µM.

And the TGI (SNB-78 CNS)?
Its TGI is over 100 µM.

What about the TGI (COLO 205 colon) of the same compound?
The TGI was over 100 µM.

What about the TGI (SF-539 CNS) of the same compound?
Its TGI is over 100 µM.

What about the TGI (SK-OV-3 ovarian) of the same compound?
Its TGI is over 100 µM.

And the TGI (KM12 colon)?
The TGI was over 100 µM.

And the TGI (UO-31 renal)?
The TGI was over 100 µM.

What about the TGI (HCC-2998 colon) of the same compound?
Its TGI is over 100 µM.

What about the TGI (OVCAR-5 ovarian) of the same compound?
The TGI was over 100 µM.

What about the TGI (SR leukemia) of the same compound?
Its TGI is over 100 µM.

And the TGI (HOP-92 NSCLC)?
The TGI was over 100 µM.

What about the TGI (HOP-62 NSCLC) of the same compound?
The TGI was over 100 µM.

And the TGI (HCT-15 colon)?
The TGI was over 100 µM.

And the TGI (HT29 colon)?
Its TGI is over 100 µM.

And the TGI (SK-MEL-2 melanoma)?
The TGI was over 100 µM.

What about the TGI (HL-60(TB) leukemia) of the same compound?
The TGI was over 100 µM.

And the TGI (OVCAR-4 ovarian)?
Its TGI is over 100 µM.

What about the TGI (SF-295 CNS) of the same compound?
The TGI was over 100 µM.

What about the TGI (XF 498 CNS) of the same compound?
Its TGI is over 100 µM.

What about the TGI (DMS 114 small cell lung) of the same compound?
Its TGI is over 100 µM.

What about the TGI (NCI-H522 lung) of the same compound?
Its TGI is over 100 µM.

And the TGI (HCT-116 colon)?
The TGI was over 100 µM.

And the TGI (M19-MEL melanoma)?
Its TGI is over 100 µM.

And the TGI (SF-268 CNS)?
The TGI was over 100 µM.

What about the TGI (UACC-257 melanoma) of the same compound?
The TGI was over 100 µM.

And the TGI (A498 renal)?
Its TGI is over 100 µM.

And the TGI (CCRF-CEM leukemia)?
Its TGI is over 100 µM.

And the TGI (OVCAR-8 ovarian)?
Its TGI is over 100 µM.

And the TGI (MOLT-4 leukemia)?
The TGI was over 100 µM.

And the TGI (SN12C renal)?
The TGI was over 100 µM.

And the TGI (IGROV1 ovarian)?
The TGI was over 100 µM.

What about the TGI (EKVX NSCLC) of the same compound?
The TGI was over 100 µM.

And the TGI (UACC-62 melanoma)?
The TGI was over 100 µM.

And the TGI (DLD-1 colon)?
The TGI was over 100 µM.

And the TGI (NCI-H23 lung)?
The TGI was over 100 µM.

What about the TGI (MALME-3M melanoma) of the same compound?
Its TGI is over 100 µM.

What about the TGI (K-562 leukemia) of the same compound?
The TGI was over 100 µM.

What about the TGI (786-0 renal) of the same compound?
The TGI was over 100 µM.

And the TGI (RPMI-8226 leukemia)?
The TGI was over 100 µM.

And the TGI (M14 melanoma)?
The TGI was over 100 µM.

And the TGI (RXF 393 renal)?
Its TGI is over 100 µM.

And the TGI (ACHN renal)?
The TGI was over 100 µM.

And the TGI (U251 CNS)?
Its TGI is over 100 µM.

And the TGI (RXF-631 renal)?
The TGI was over 100 µM.

What about the TGI (KM20L2 colon) of the same compound?
Its TGI is over 100 µM.

And the TGI (SNB-75 CNS)?
Its TGI is 83.3 µM.

And the TGI (SNB-19 CNS)?
Its TGI is over 100 µM.

And the TGI (A549 NSCLC)?
The TGI was over 100 µM.

What about the TGI (CAKI-1 renal) of the same compound?
Its TGI is over 100 µM.
